Data published in the Kinase Knowledgebase extract (Sharma et al. 2016).

Key:
PIK3CG (human) = PIK3CG (human) (UniProt P48736); assay: Inhibition of PIK3CG Kinase Activity
PIK3CA (human) = PIK3CA (human) (UniProt P42336); assay: Enzyme Assay
Sequence of PIK3CA (human) (P42336 whole entry, looked up): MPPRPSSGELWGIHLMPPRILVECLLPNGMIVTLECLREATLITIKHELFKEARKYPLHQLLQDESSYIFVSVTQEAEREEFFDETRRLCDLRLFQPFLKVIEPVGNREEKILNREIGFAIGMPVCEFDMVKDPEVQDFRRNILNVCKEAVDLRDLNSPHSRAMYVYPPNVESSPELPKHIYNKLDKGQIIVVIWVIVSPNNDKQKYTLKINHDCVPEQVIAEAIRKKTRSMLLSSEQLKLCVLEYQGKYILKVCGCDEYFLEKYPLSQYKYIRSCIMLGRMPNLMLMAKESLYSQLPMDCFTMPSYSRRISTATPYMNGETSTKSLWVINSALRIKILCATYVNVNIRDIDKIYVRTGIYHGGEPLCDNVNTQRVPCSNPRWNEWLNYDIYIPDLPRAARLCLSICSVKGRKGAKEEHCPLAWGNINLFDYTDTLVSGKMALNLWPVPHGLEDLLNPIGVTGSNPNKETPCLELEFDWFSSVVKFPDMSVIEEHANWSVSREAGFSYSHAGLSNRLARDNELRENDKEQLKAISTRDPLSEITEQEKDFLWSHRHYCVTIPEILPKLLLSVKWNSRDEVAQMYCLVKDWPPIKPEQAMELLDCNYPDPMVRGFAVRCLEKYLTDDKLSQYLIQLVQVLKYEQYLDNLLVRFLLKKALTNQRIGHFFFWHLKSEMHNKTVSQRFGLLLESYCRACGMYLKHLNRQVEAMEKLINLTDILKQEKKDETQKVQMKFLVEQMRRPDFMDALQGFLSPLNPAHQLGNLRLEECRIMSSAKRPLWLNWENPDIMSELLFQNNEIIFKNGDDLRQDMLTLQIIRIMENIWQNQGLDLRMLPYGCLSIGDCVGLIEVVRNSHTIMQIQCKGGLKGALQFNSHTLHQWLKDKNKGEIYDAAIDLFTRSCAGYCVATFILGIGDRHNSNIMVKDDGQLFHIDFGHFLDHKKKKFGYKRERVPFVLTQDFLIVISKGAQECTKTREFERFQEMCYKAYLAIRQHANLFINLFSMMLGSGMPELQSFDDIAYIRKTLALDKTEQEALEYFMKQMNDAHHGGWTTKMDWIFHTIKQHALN

Sequence of PIK3CG (human) (P48736 whole entry, looked up): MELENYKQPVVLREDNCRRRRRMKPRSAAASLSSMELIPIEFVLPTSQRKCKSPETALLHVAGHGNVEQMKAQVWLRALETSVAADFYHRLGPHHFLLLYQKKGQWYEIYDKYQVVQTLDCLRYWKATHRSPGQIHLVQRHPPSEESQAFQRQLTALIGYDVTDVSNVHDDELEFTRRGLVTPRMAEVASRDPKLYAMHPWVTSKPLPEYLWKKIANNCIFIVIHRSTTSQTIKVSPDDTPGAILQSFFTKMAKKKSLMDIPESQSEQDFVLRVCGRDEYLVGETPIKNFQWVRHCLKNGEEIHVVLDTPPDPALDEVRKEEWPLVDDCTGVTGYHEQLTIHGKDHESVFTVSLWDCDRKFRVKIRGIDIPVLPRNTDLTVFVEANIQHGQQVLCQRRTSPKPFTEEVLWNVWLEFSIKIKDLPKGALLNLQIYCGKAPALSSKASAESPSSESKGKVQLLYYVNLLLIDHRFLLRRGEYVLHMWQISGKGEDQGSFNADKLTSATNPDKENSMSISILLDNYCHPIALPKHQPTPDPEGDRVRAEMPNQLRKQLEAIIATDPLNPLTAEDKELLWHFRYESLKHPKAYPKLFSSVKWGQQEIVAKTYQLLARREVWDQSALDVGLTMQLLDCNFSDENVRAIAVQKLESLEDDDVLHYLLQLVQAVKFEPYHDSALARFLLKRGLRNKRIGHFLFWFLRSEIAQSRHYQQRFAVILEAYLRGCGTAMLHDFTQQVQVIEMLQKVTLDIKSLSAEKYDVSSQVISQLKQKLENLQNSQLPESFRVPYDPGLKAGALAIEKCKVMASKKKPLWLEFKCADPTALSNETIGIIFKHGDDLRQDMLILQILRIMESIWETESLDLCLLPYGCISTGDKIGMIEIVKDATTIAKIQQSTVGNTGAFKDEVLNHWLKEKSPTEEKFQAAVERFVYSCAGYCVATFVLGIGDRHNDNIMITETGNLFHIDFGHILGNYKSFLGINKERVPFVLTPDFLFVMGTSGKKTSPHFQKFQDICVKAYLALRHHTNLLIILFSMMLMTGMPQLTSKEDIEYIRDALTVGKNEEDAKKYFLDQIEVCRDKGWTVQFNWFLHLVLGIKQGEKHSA

Row | Compound | IC50 (PIK3CG (human)) [µM] | IC50 (PIK3CA (human)) [µM]
1 | COc1ccc2[nH]cc(/C=C3\Oc4cc(S(=O)(=O)OC(F)(F)F)ccc4C3=O)c2c1 | 9.35 | 
2 | Cc1cccc2c1c(/C=C1\Oc3cc(O)cc(O)c3C1=O)c(-c1ccccn1)n2C | 11 | 
3 | COc1cc(-c2ccncc2)c2c(c1)c(/C=C1\Oc3cc(O)ccc3C1=O)cn2CCCC#N | 5 | 
4 | CN(C)Cc1ccc(-c2ccc(-c3c(/C=C4\Oc5cc(O)cc(O)c5C4=O)c4ccccc4n3C)cc2)cc1 | 2.31 | 1.23
5 | Cn1cc(/C=C2/Oc3cc(O)cc(O)c3C2=O)c2c(-c3ccccc3)cccc21.Cn1cc(/C=C2\Oc3cc(O)cc(O)c3C2=O)c2c(-c3ccccc3)cccc21 |  | 0.266
6 | COc1ccc2c(c1)c(C=C1Oc3c(ccc(O)c3O)C1=O)c(C)n2CCCCN1CCN(CCO)CC1 | 3.17 | 0.204
7 | COc1ccc2[nH]cc(/C=C3\Oc4cc(O)cc(-c5ccccc5)c4C3=O)c2c1 |  | 0.122
8 | COc1ccc(-c2cccc3c2c(/C=C2\Oc4cc(O)cc(O)c4C2=O)cn3C)cn1 | 5 | 
9 | COc1ccc2c(c1)c(C=C1Oc3cccc(O)c3C1=O)c(C)n2CCN1CCN(C)CC1 | 4.5 | 0.488
10 | Cc1ccc2c(c1)C(=O)/C(=C/c1c(C)[nH]c3ccc([N+](=O)[O-])cc13)S2 |  | 9.19
11 | CCc1cc(OC)cc2c(/C=C3\Oc4cc(O)cc(O)c4C3=O)cn(CCCC#N)c12 |  | 0.0625
12 | CNC(=O)Nc1ccc2c(c1)O/C(=C\c1cn(CCCN(C)C)c3ccc(OC)cc13)C2=O |  | 10
13 | COc1ccc2c(c1)c(C=C1Oc3c(ccc(O)c3O)C1=O)c(C)n2CCCCN1CCOCC1 | 0.954 | 0.231
14 | Cn1cc(C=C2Oc3cc(O)cc(O)c3C2=O)c2c(Cl)cccc21 | 10 | 
15 | COc1ccc2c(c1)c(/C=C1\Oc3c(ccc(O)c3C)C1=O)c(C)n2CCCN(C)C | 5 | 
16 | COc1ccc2c(c1)c(C=C1Oc3c(ccc(O)c3O)C1=O)c(C)n2CCCCN1CCN(C)CC1 | 4.15 | 0.337
17 | COc1ccc2c(c1)c(C=C1Oc3cccc(O)c3C1=O)c(C)n2CCN1CCOCC1 | 4.13 | 0.65
18 | COc1ccc2[nH]cc(/C=C3\Oc4c(OC)cccc4C3=O)c2c1 |  | 9.86

Row | Compound | IC50 (PIK3CG (human)) [µM] | IC50 (PIK3CA (human)) [µM]
19 | COc1cc(/C=C/CC2CCNCC2)c2[nH]cc(/C=C3\Oc4cc(O)ccc4C3=O)c2c1 | 1.89 | 0.048
20 | Cn1c(-c2ccc(-c3ccc(CN)cc3)cc2)c(/C=C2\Oc3cc(O)cc(O)c3C2=O)c2ccccc21 | 9.5 | 2.86
21 | CN(c1ccccc1)c1cccc2c1c(/C=C1\Oc3cc(O)cc(O)c3C1=O)cn2C | 5 | 
22 | Cc1ccc2c(c1)C(=O)/C(=C/c1c(-c3ccc4ccccc4c3)[nH]c3ccccc13)S2 |  | 12
23 | COc1ccc2c(c1)c(/C=C1\Oc3ccc(Br)cc3C1=O)cn2CCCN(C)C | 5 | 
24 | O=C1C(=Cc2c(-c3ccccc3)n(Cc3cccnc3)c3ccccc23)Oc2cc(O)cc(O)c21 | 11 | 
25 | O=C1C(=Cc2c(Br)[nH]c3ccccc23)Oc2c1ccc(O)c2O | 5 | 
26 | O=C1C(=Cc2c(-c3ccccc3)n(CCN3CCCCC3)c3ccccc23)Oc2cc(O)cc(O)c21 | 4.88 | 2.28
27 | COc1ccc2[nH]cc(/C=C3\Oc4cc(O)cc(Br)c4C3=O)c2c1 |  | 0.12
28 | O=C1/C(=C/c2c[nH]c3ccc(Cl)cc23)Oc2c1ccc(O)c2O | 5 | 
29 | COc1ccc2[nH]c(CCn3ccnc3)c(/C=C3\Oc4cc(O)cc(O)c4C3=O)c2c1 | 0.0815 | 0.0095
30 | Cn1cc(/C=C2\Oc3cc(O)cc(O)c3C2=O)c2c(Br)cccc21 | 1.94 | 3.31
31 | O=C1C(=Cc2c(-c3ccccc3)n(Cc3ccncc3)c3ccccc23)Oc2cc(O)cc(O)c21 | 11 | 
32 | O=C1C(=Cc2c[nH]c3cc(Cl)ccc23)Oc2cc(O)cc(O)c21 | 10 | 
33 | COC(=O)Nc1ccc2c(c1)C(=O)/C(=C/c1cn(CCN3CCN(C)CC3)c3ccc(OC)cc13)O2 | 7.36 | 0.63
34 | CCc1cc(O)cc2c1C(=O)/C(=C/c1c[nH]c3ccc(OC)cc13)O2 |  | 0.133
35 | COc1ccc2c(c1)c(C=C1Oc3cccc(O)c3C1=O)c(C)n2CCN1CCN(CCO)CC1 | 3.97 | 0.478
